These results are taken from patent US12662489B2 (Sitryx Therapeutics Limited, priority 2023, dated 2026).

The target in experiment [1] is T1, MTHFD1 recombinant human enzyme (Homo sapiens, UniProt P11586).
T1 sequence (P11586 2-291 limits assumed): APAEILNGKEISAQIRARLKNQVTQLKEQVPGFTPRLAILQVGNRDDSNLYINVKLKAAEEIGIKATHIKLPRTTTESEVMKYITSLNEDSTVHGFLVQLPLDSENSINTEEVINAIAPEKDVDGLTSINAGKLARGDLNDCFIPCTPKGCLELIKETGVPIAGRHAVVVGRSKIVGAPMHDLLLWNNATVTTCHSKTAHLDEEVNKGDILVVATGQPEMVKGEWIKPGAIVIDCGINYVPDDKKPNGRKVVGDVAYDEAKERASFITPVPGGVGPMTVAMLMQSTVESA
Briefly: MTHFD1 inhibition assay (NAD(P)H-Glo luminescence). The conditions noted are these: MTHFD1 IC50, recombinant human enzyme 200 nM, NADP, band.

Experiment [2] has as its target T2, MTHFD2 recombinant human enzyme (Homo sapiens, UniProt P13995).
T2 sequence (P13995 36-350): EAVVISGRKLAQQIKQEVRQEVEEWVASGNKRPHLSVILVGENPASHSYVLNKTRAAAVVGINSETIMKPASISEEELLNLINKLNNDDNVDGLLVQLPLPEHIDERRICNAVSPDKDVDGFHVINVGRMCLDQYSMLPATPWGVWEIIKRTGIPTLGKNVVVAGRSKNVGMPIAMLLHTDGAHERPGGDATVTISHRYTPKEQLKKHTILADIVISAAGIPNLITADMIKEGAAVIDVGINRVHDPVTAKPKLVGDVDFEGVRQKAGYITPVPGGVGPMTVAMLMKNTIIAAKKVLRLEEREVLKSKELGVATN
As to the kind of experiment: MTHFD2 inhibition assay (NAD(P)H-Glo luminescence). The conditions noted are these: for MTHFD1/MTHFD2 IC50 ratio: selectivity of MTHFD2 inhibition over MTHFD1, band.

In the case of `COC[C@H]1CN(c2cc(C)c3c4c(c(=O)oc3c2)CN(C(=O)c2ccc(C(=O)NS(=O)(=O)N3CCCC3)c(OC3CCC3)c2F)CC4)CCN1C` [Example 186, (R)-2-cyclobutoxy-3-fluoro-4-(8-(3-(methoxymethyl)-4-methylpiperazin-1-yl)-10-methyl-5-oxo-1,3,4,5-tetrahydro-2H-chromeno[3,4-c]pyridine-3-carbonyl)-N-(pyrrolidin-1-ylsulfonyl)benzamide], the IC50 in experiment [1] fell in the range of 100 to 1000 nM. Also, in experiment [2], the IC50 is 100 to 1000 nM and the “MTHFD1/MTHFD2 IC50 ratio” value is listed as “F (<3)”.
For the compound `COC[C@H]1CN(c2cc(C)c3c4c(c(=O)oc3c2)CN(C(=O)c2ccc(C(=O)NS(=O)(=O)N3CCCC3)c(OC3CCCC3)c2F)CC4)CCN1C` [Example 187, (R)-2-(cyclopentyloxy)-3-fluoro-4-(8-(3-(methoxymethyl)-4-methylpiperazin-1-yl)-10-methyl-5-oxo-1,3,4,5-tetrahydro-2H-chromeno[3,4-c]pyridine-3-carbonyl)-N-(pyrrolidin-1-ylsulfonyl)benzamide], the IC50 in experiment [1] was over 5000 nM. In experiment [2], the IC50 fell in the range of 100 to 1000 nM and the “MTHFD1/MTHFD2 IC50 ratio” value is listed as “H (>9.0 to 30)”.
For `COC[C@H]1CN(c2ccc3c4c(c(=O)oc3c2C)CN(C(=O)c2cc(N(C)C)c(C(=O)NS(=O)(=O)N3C5CCC3CC5)cc2F)CC4)CCN1C` [Example 188, (R)-N-((7-azabicyclo[2.2.1]heptan-7-yl)sulfonyl)-2-(dimethylamino)-5-fluoro-4-(8-(3-(methoxymethyl)-4-methylpiperazin-1-yl)-7-methyl-5-oxo-1,3,4,5-tetrahydro-2H-chromeno[3,4-c]pyridine-3-carbonyl)benzamide] the same measures were 1000 to 5000 nM, 10 to 100 nM and “H (>9.0 to 30)”.
`COC[C@H]1CN(c2ccc3c4c(c(=O)oc3c2C)CN(C(=O)c2cc(N(C)C)c(C(=O)NS(=O)(=O)N3CCC5(CC3)CC5)cc2F)CC4)CCN1C` [Example 189, (R)-N-((6-azaspiro[2.5]octan-6-yl)sulfonyl)-2-(dimethylamino)-5-fluoro-4-(8-(3-(methoxymethyl)-4-methylpiperazin-1-yl)-7-methyl-5-oxo-1,3,4,5-tetrahydro-2H-chromeno[3,4-c]pyridine-3-carbonyl)benzamide]: the IC50 in experiment [1] fell in the range of 1000 to 5000 nM. Further, in experiment [2], the IC50 fell in the range of 100 to 1000 nM and the “MTHFD1/MTHFD2 IC50 ratio” value is “H (>9.0 to 30)”.
`COC[C@H]1CN(c2ccc3c4c(c(=O)oc3c2C)CN(C(=O)c2cc(N(C)C)c(C(=O)NS(=O)(=O)N3CCC5(CC3)CC5)cc2Cl)CC4)CCN1C` [Example 190, (R)-N-((6-azaspiro[2.5]octan-6-yl)sulfonyl)-5-chloro-2-(dimethylamino)-4-(8-(3-(methoxymethyl)-4-methylpiperazin-1-yl)-7-methyl-5-oxo-1,3,4,5-tetrahydro-2H-chromeno[3,4-c]pyridine-3-carbonyl)benzamide]: the IC50 in experiment [1] is over 5000 nM. Also, in experiment [2], the IC50 was 100 to 1000 nM and the “MTHFD1/MTHFD2 IC50 ratio” value is listed as “H (>9.0 to 30)”.
Turning to `COC[C@H]1CN(c2ccc3c4c(c(=O)oc3c2)CN(C(=O)c2cc(N(C)C)c(C(=O)NS(=O)(=O)N3C5CCC3CC5)cc2F)CC4)CCN1C` [Example 191, (R)-N-((7-azabicyclo[2.2.1]heptan-7-yl)sulfonyl)-2-(dimethylamino)-5-fluoro-4-(8-(3-(methoxymethyl)-4-methylpiperazin-1-yl)-5-oxo-1,3,4,5-tetrahydro-2H-chromeno[3,4-c]pyridine-3-carbonyl)benzamide], the IC50 in experiment [1] is over 5000 nM; in experiment [2] it was 100 to 1000 nM. Moreover, the “MTHFD1/MTHFD2 IC50 ratio” value in experiment [2] is reported as “G (^ 3 to 9.0)”.
For `Cc1c(N2CCN(C)[C@@H](COC(C)C)C2)ccc2c3c(c(=O)oc12)CN(C(=O)c1ccc(C(=O)NS(=O)(=O)N2CCCC2)c(OC2CCC2)c1F)CC3` [Example 192, (R)-2-cyclobutoxy-3-fluoro-4-(8-(3-(isopropoxymethyl)-4-methylpiperazin-1-yl)-7-methyl-5-oxo-1,3,4,5-tetrahydro-2H-chromeno[3,4-c]pyridine-3-carbonyl)-N-(pyrrolidin-1-ylsulfonyl)benzamide] the same measures were 100 to 1000 nM, 100 to 1000 nM and “F (<3)”.
Taken in the same sequence, the figures for `COC[C@H]1CN(c2ccc3c4c(c(=O)oc3c2C)CN(C(=O)c2cc(N3CCC3)c(C(=O)NS(=O)(=O)N3CCCC3)cc2F)CC4)CCN1C` [Example 194, (R)-2-(azetidin-1-yl)-5-fluoro-4-(8-(3-(methoxymethyl)-4-methylpiperazin-1-yl)-7-methyl-5-oxo-1,3,4,5-tetrahydro-2H-chromeno[3,4-c]pyridine-3-carbonyl)-N-(pyrrolidin-1-ylsulfonyl)benzamide] were 100 to 1000 nM, 10 to 100 nM and “G (^ 3 to 9.0)”.
In the case of `CCOc1c(C(=O)NS(=O)(=O)N2CCCCC2)ccc(C(=O)N2CCc3c(c(=O)oc4c(C)c(N5CCN(C)[C@@H](COC)C5)cc(C)c34)C2)c1F` [Example 197, (R)-2-ethoxy-3-fluoro-4-(8-(3-(methoxymethyl)-4-methylpiperazin-1-yl)-7,10-dimethyl-5-oxo-1,3,4,5-tetrahydro-2H-chromeno[3,4-c]pyridine-3-carbonyl)-N-(piperidin-1-ylsulfonyl)benzamide], the half-inhibitory concentration (IC50) in experiment [1] and in experiment [2] was 10 to 100 nM throughout. For the same compound, in experiment [2], the “MTHFD1/MTHFD2 IC50 ratio” value was “G (^ 3 to 9.0)”.
On to `CCOc1c(C(=O)NS(=O)(=O)N2CCCCC2)ccc(C(=O)N2CCc3c(c(=O)oc4c(C)c(N5CCN(C)[C@@H](COC)C5)ccc34)C2)c1F` [Example 198, (R)-2-ethoxy-3-fluoro-4-(8-(3-(methoxymethyl)-4-methylpiperazin-1-yl)-7-methyl-5-oxo-1,3,4,5-tetrahydro-2H-chromeno[3,4-c]pyridine-3-carbonyl)-N-(piperidin-1-ylsulfonyl)benzamide], for which the IC50 in experiment [1] lay within 100 to 1000 nM. Moreover, in experiment [2], the IC50 was in the range of 100 to 1000 nM and the “MTHFD1/MTHFD2 IC50 ratio” value is “F (<3)”.
`COC[C@H]1CN(c2cc(C)c3c4c(c(=O)oc3c2C)CN(C(=O)c2ccc(C(=O)NS(=O)(=O)N3CCCC3)c(N(C)C3CCC3)c2)CC4)CCN1C` [Example 200, (R)-2-(cyclobutyl(methyl)amino)-4-(8-(3-(methoxymethyl)-4-methylpiperazin-1-yl)-7,10-dimethyl-5-oxo-1,3,4,5-tetrahydro-2H-chromeno[3,4-c]pyridine-3-carbonyl)-N-(pyrrolidin-1-ylsulfonyl)benzamide]: in experiment [1], the IC50 is 100 to 1000 nM. Besides, in experiment [2], the IC50 was 10 to 100 nM and the “MTHFD1/MTHFD2 IC50 ratio” value is “H (>9.0 to 30)”.
On to `COC[C@H]1CN(c2ccc3c4c(c(=O)oc3c2C)CN(C(=O)c2cc(N3CCC3)c(C(=O)NS(=O)(=O)N3CC5CC5C3)cc2F)CC4)CCN1C` (stereo partly drawn) [Example 203, N-((3-azabicyclo[3.1.0]hexan-3-yl)sulfonyl)-2-(azetidin-1-yl)-5-fluoro-4-(8-((R)-3-(methoxymethyl)-4-methylpiperazin-1-yl)-7-methyl-5-oxo-1,3,4,5-tetrahydro-2H-chromeno[3,4-c]pyridine-3-carbonyl)benzamide], for which the IC50 fell in the range of 100 to 1000 nM in experiment [1] and 10 to 100 nM in experiment [2]. Further, the “MTHFD1/MTHFD2 IC50 ratio” value in experiment [2] is on record as “G (^ 3 to 9.0)”.
In the case of `COC[C@H]1CN(c2cc(C)c3c4c(c(=O)oc3c2C)CN(C(=O)c2ccc(C(=O)NS(=O)(=O)N3CCC(F)CC3)cc2F)CC4)CCN1C` [Example 204, (R)-3-fluoro-N-((4-fluoropiperidin-1-yl)sulfonyl)-4-(8-(3-(methoxymethyl)-4-methylpiperazin-1-yl)-7,10-dimethyl-5-oxo-1,3,4,5-tetrahydro-2H-chromeno[3,4-c]pyridine-3-carbonyl)benzamide], the values for the IC50 in experiment [1] and in experiment [2] were 1000 to 5000 nM and 10 to 100 nM, respectively. For the same compound, the “MTHFD1/MTHFD2 IC50 ratio” value in experiment [2] is “J (>30)”.
Consider `CCCOc1c(C(=O)NS(=O)(=O)N2CCCC2)ccc(C(=O)N2CCc3c(c(=O)oc4c(C)c(N5CCN(C)[C@@H](COC)C5)cc(C)c34)C2)c1F` [Example 205, (R)-3-fluoro-4-(8-(3-(methoxymethyl)-4-methylpiperazin-1-yl)-7,10-dimethyl-5-oxo-1,3,4,5-tetrahydro-2H-chromeno[3,4-c]pyridine-3-carbonyl)-2-propoxy-N-(pyrrolidin-1-ylsulfonyl)benzamide], for which the IC50 in experiment [1] was 10 to 100 nM. Besides, in experiment [2], the IC50 fell in the range of 10 to 100 nM and the “MTHFD1/MTHFD2 IC50 ratio” value was “G (^ 3 to 9.0)”.
Consider `COC[C@H]1CN(c2cc(C)c3c4c(c(=O)oc3c2C)CN(C(=O)c2ccc(C(=O)NS(=O)(=O)N3CCCC3)c(OCC(F)(F)F)c2F)CC4)CCN1C` [Example 206, (R)-3-fluoro-4-(8-(3-(methoxymethyl)-4-methylpiperazin-1-yl)-7,10-dimethyl-5-oxo-1,3,4,5-tetrahydro-2H-chromeno[3,4-c]pyridine-3-carbonyl)-N-(pyrrolidin-1-ylsulfonyl)-2-(2,2,2-trifluoroethoxy)benzamide], for which the IC50 in experiment [1] lay within 10 to 100 nM. Moreover, in experiment [2], the IC50 fell in the range of 10 to 100 nM and the “MTHFD1/MTHFD2 IC50 ratio” value is listed as “F (<3)”.

For orientation: IC50 means the concentration that inhibits the measured activity by half.
